A word on the EC50: it is the concentration giving half of the maximal effect. The term inhibition denotes how much of the control response was suppressed.

This passage reports EC50 and inhibition results from US10206908B2, “3-(1H-pyrrolo[3,2-C]pyridin-2-YL)-1H-pyrazolo[3,4-C]pyridines and therapeutic uses thereof” (Samumed, LLC, priority 2015, dated 2019).

Type in all cases: cell-based
Test [1] deals with Wnt activity (Sp5-Luc reporter, SW480 colon carcinoma cells). Put plainly: Screening assay for Wnt activity: Sp5-Luc reporter gene assay in SW480 colon carcinoma cells. The note with it: Homo sapiens; for EC50: Sp5-Luc reporter, SW480 cells, overnight incubation; for inhibition at 10 µM: SW480, read-out: percent inhibition at 10 μM. The source says: The screening assay for Wnt activity is described as follows. Reporter cell lines can be generated by stably transducing cancer cell lines (e.g., colon cancer) or primary cells (e.g., IEC-6 intestinal cells) with a lentiviral construct that includes a Wnt-responsive promoter driving expression of the firefly luciferase gene.
SW480 colon carcinoma cells were transduced with a lentiviral vector expressing luciferase with a human Sp5 promoter consisting of a sequence of eight TCF/LEF binding sites. SW480 cells stably expressing the Sp5-Luc reporter gene and a hygromycin resistance gene were selected by treatment with 150 μg/mL of hygromycin for 7 days. These stably transduced SW480 cells were expanded in cell culture and used for all further screening activities. […] For Sp5-Luc reporter gene assays, the cells were plated at 4,000 cells/well in 384-well plates with medium containing 1% fetal bovine serum and incubated overnight at 37° C. and 5% CO2. Following incubation, 20 μl of BrightGlo luminescence reagent (Promega) was added to each well of the 384-well assay plates. The plates were placed on an orbital shaker for 2 min and then luminescence was quantified using the Envision (Perkin Elmer) plate reader. Readings were normalized to DMSO only treated cells, and normalized activities were utilized for EC50 calculations using the dose-response log (inhibitor) vs. response-variable slope (four parameters) nonlinear regression feature available in GraphPad Prism 5.0 (or Dotmatics).
A general note: Reporter assays use an easily measured gene product as a stand-in for the process of interest.

Test [2] deals with SW480 colon cancer cells. Put plainly: Cell viability assay (CellTiter-Blue) in SW480 colon cancer cells. The following applies: Homo sapiens; for EC50: 96 h, SW480 cell viability, four days; for inhibition at 10 µM: SW480, read-out: percent inhibition at 10 μM. The protocol: Representative compounds were screened using the following assay procedure to assess the effect on cell viability as described below.
Approximately 2×10^3 SW480 colon cancer cells were seeded into each well and allowed to incubate in the presence or absence of compound for four days at 37° C./5% CO2. Eight replicates of DMSO-treated cells served as controls and cells treated with compound were performed in duplicate.
After incubation, 20 μL of CellTiter-Blue (Promega) was added to each well allowed to incubate for approximately 3 hours. This reagent was a buffered solution which contains resazurin, metabolically active cells were able to reduce rezarurin (blue) into resorufin (pink) which was highly fluorescent. This measured fluorescence was used as a readout for cell viability.
Background: Alamar Blue is a resazurin reagent that responds to reducing activity.

Test [3] relates to primary human fibroblasts derived from IPF patients (LL29 cells) treated with TGF-β1. Put plainly: Inhibition of the fibrotic process: αSMA staining in TGF-β1 treated LL29 fibroblasts. The following applies: Fibroblast; for EC50: 96 h, % αSMA positive LL29 cells, TGF-β1 20 ng/mL, 4 days; for inhibition at 10 µM: read-out: percent inhibition at 10 μM. As for the experimental part: Representative compounds were screened using primary human fibroblasts (derived from IPF patients) treated with TGF-β1 to determine their ability to inhibit the fibrotic process.
LL29 cells are plated at 1,500 cells/well in 80 μL/well F12 medium supplemented with 1% Fetal Bovine Serum. […] Wells treated with TGF-β1 and containing DMSO were used as controls. […] Following incubation for 4 days, SYTOX green nucleic acid stain (Life Technologies [Thermo Fisher Scientific]) was added to the wells at a final concentration of 1 μM and incubated at room temperature for 30 min.

For test [4], the system named is IL-6 (THP-1 cells). Put plainly: IL-6 inhibition in LPS-stimulated THP-1 monocytes (HTRF). The note with it: Homo sapiens; for EC50: IL-6, THP-1 cells, LPS 500 ng/mL, 22 hours; for inhibition at 10 µM: THP-1, read-out: percent inhibition at 10 μM. As for the experimental part:
Compound Screening: THP-1 cells were cultured in basal media with 1% FBS for 24 hours before the start of the assay. […] THP-1 cells were plated at 5000 cells/well in the 384-well plates and incubated at 37° C. for 2 h. 500 ng/mL of LPS was added after 2 hours and cells were incubated for another 22 hours at 37° C. Plates were spun in a centrifuge for 1 minute at […] and a mixture of anti-IL6 XL665, and anti-IL6 Cryptate diluted in reconstitution buffer (Cisbio Inc.) was added to each well. Following incubation for 3 hrs at room temperature, Homogeneous Time-Resolved Fluorescence (HTRF) was measured using the Envision (Perkin Elmer) at 665 nm and […]. The ratio of fluorescence at 665 nm to 620 nm was used as a readout for IL6 quantification. All samples were processed in duplicate. Readings were normalized to DMSO treated cells and normalized activities were utilized for EC50 calculations using the dose-response log (inhibitor) vs. response-variable slope (four parameters) nonlinear regression feature available in GraphPad Prism 5.0 (or Dotmatics).
For orientation: In TR-FRET formats the signal depends on donor and acceptor labels being close together.

Some results are limits rather than exact numbers.

Regarding `CC(C)CC(=O)Nc1cncc(-c2cc3c(-c4cc5c(N6CCCCC6)nccc5[nH]4)n[nH]c3cn2)c1` [Compound 170, 3-Methyl-N-(5-(3-(4-(piperidin-1-yl)-1H-pyrrolo[3,2-c]pyridin-2-yl)-1H-pyrazolo[3,4-c]pyridin-5-yl)pyridin-3-yl)butanamide], the EC50 was found to be 1250 nM in test [1], 1500 nM in test [2], 2360 nM in test [3] and 1780 nM in test [4].

For the molecule `CN1CCN(c2nccc3[nH]c(-c4n[nH]c5cnc(-c6cncc(NC(=O)CC7CCNCC7)c6)cc45)cc23)CC1` [Compound 641, N-(5-(3-(4-(4-Methylpiperazin-1-yl)-1H-pyrrolo[3,2-c]pyridin-2-yl)-1H-pyrazolo[3,4-c]pyridin-5-yl)pyridin-3-yl)-2-(piperidin-4-yl)acetamide], the inhibition at 10 µM in test [1] worked out at 7.9%; in test [2], 4.4%; in test [4], 14.4%. Moreover, the EC50 was greater than 10000 nM in test [1], greater than 10000 nM in test [2], 5120 nM in test [3] and greater than 10000 nM in test [4].

Consider `CN1CCN(c2nccc3[nH]c(-c4n[nH]c5cnc(-c6cncnc6)cc45)cc23)CC1` [Compound 251, 3-(4-(4-Methylpiperazin-1-yl)-1H-pyrrolo[3,2-c]pyridin-2-yl)-5-(pyrimidin-5-yl)-1H-pyrazolo[3,4-c]pyridine], for which the inhibition at 10 µM turned out to be 41.7% in test [1], 0% in test [2], 17.6% in test [3] and 12.1% in test [4]. Moreover, the half-maximal effective concentration (EC50) in test [1], in test [2], in test [3] and in test [4] was greater than 10000 nM throughout.

As for `Cn1cc(-c2cc3c(-c4cc5c(-c6cccnc6)nccc5[nH]4)n[nH]c3cn2)cn1` [Compound 556, 5-(1-Methyl-1H-pyrazol-4-yl)-3-(4-(pyridin-3-yl)-1H-pyrrolo[3,2-c]pyridin-2-yl)-1H-pyrazolo[3,4-c]pyridine], the concentration giving a half-maximal response (EC50) in test [1] was 78 nM; in test [2], greater than 10000 nM; in test [3], 69 nM; in test [4], 503 nM. In addition, in test [2], the inhibition at 10 µM was determined as 0%.

For `CS(=O)(=O)NCc1cc(F)cc(-c2nccc3[nH]c(-c4n[nH]c5cnc(-c6ccccn6)cc45)cc23)c1` [Compound 504, N-(3-Fluoro-5-(2-(5-(pyridin-2-yl)-1H-pyrazolo[3,4-c]pyridin-3-yl)-1H-pyrrolo[3,2-c]pyridin-4-yl)benzyl)methanesulfonamide], the EC50 in test [1] stood at 1670 nM; in test [2], 1560 nM; in test [3], 3390 nM; in test [4] it was 2150 nM.

With `CCCC(=O)Nc1cncc(-c2cc3c(-c4cc5c(-c6ccoc6)nccc5[nH]4)n[nH]c3cn2)c1` [Compound 325, N-(5-(3-(4-(Furan-3-yl)-1H-pyrrolo[3,2-c]pyridin-2-yl)-1H-pyrazolo[3,4-c]pyridin-5-yl)pyridin-3-yl)butyramide], the EC50 is 1100 nM in test [1], greater than 10000 nM in test [2], 1740 nM in test [3] and 2380 nM in test [4]. In test [2], the inhibition at 10 µM worked out at 31.2%.

Regarding `O=C(Cc1ccccc1)Nc1cncc(-c2cc3c(-c4cc5c(N6CCCCC6)nccc5[nH]4)n[nH]c3cn2)c1` [Compound 178, 2-Phenyl-N-(5-(3-(4-(piperidin-1-yl)-1H-pyrrolo[3,2-c]pyridin-2-yl)-1H-pyrazolo[3,4-c]pyridin-5-yl)pyridin-3-yl)acetamide], the EC50 in test [1] is 4230 nM; in test [2] it was 6500 nM; in test [3] it was greater than 10000 nM; in test [4], 9320 nM. The inhibition at 10 µM in test [3] is 0%.

Regarding `c1cc(-c2cc3c(-c4cc5c(-c6ccncc6)nccc5[nH]4)n[nH]c3cn2)ccn1` [Compound 130, 5-(Pyridin-4-yl)-3-(4-(pyridin-4-yl)-1H-pyrrolo[3,2-c]pyridin-2-yl)-1H-pyrazolo[3,4-c]pyridine], the EC50 is 418 nM in test [1], greater than 10000 nM in test [2], 96 nM in test [3] and greater than 10000 nM in test [4]. Further, the inhibition at 10 µM was 36.6% in test [2] and 0% in test [4].

Regarding `CC(C)CC(=O)Nc1cncc(-c2cc3c(-c4cc5c(-c6cc(F)cc(CNS(C)(=O)=O)c6)nccc5[nH]4)n[nH]c3cn2)c1` [Compound 478, N-(5-(3-(4-(3-Fluoro-5-(methylsulfonamidomethyl)phenyl)-1H-pyrrolo[3,2-c]pyridin-2-yl)-1H-pyrazolo[3,4-c]pyridin-5-yl)pyridin-3-yl)-3-methylbutanamide], the inhibition at 10 µM was determined as 38.7% in test [1], 6.3% in test [2], 29% in test [3] and 41.3% in test [4]. For the same molecule, the EC50 in test [1], in test [2], in test [3] and in test [4] was greater than 10000 nM in each case.

Take `CS(=O)(=O)NCc1cc(F)cc(-c2nccc3[nH]c(-c4n[nH]c5cnc(-c6cncc(CN7CCCC7)c6)cc45)cc23)c1` [Compound 490, N-(3-Fluoro-5-(2-(5-(5-(pyrrolidin-1-ylmethyl)pyridin-3-yl)-1H-pyrazolo[3,4-c]pyridin-3-yl)-1H-pyrrolo[3,2-c]pyridin-4-yl)benzyl)methanesulfonamide]: the inhibition at 10 µM in test [1] was found to be 28.7%; in test [2], 5.5%; in test [3], 0%. The EC50 in test [1] was greater than 10000 nM; in test [2], greater than 10000 nM; in test [3] it was greater than 10000 nM; in test [4], 3860 nM.

Turning to `CCCCC(=O)Nc1cncc(-c2cc3c(-c4cc5c(-c6cccc(F)c6)nccc5[nH]4)n[nH]c3cn2)c1` [Compound 19, N-(5-(3-(4-(3-Fluorophenyl)-1H-pyrrolo[3,2-c]pyridin-2-yl)-1H-pyrazolo[3,4-c]pyridin-5-yl)pyridin-3-yl)pentanamide], the EC50 in test [1] came to 1140 nM; in test [2], 1330 nM; in test [3], 960 nM; in test [4] it was 1090 nM.
